Measurements: ChEMBL document CHEMBL1201862, “PubChem BioAssay data set” (2004)
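Grown in 96-well plates, cells were treated for 48 hours with each compound at five concentrations. Insufficient inhibition: endpoint recorded as highest concentration tested. GI50 is the concentration that inhibits growth by half.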 Calls of active or inactive are those of the source. No stated cut-off is given here; in the data, active = GI50 up to about 1.1 µM and inactive = higher.

Experiments:
Assay in all cases: DTP human tumour cell line panel, 48 h
786-0 = tested on: 786-0
A498 = tested on: A498
A549 = tested on: A549
ACHN = tested on: ACHN
BT-549 = tested on: BT-549
CAKI-1 = tested on: CAKI-1
CCRF-CEM = tested on: CCRF-CEM
COLO 205 = tested on: COLO 205
DU-145 = tested on: DU-145
EKVX = tested on: EKVX
HCC 2998 = tested on: HCC 2998
HCT-116 = tested on: HCT-116
HCT-15 = tested on: HCT-15
HL-60 = tested on: HL-60
HOP-92 = tested on: HOP-92
HT-29 = tested on: HT-29
Hs-578T = tested on: Hs-578T
IGROV-1 = tested on: IGROV-1
K562 = tested on: K562
KM12 = tested on: KM12
LOX IMVI = tested on: LOX IMVI
M14 = tested on: M14
MCF7 = tested on: MCF7
MDA-MB-231 = tested on: MDA-MB-231
MDA-MB-435 = tested on: MDA-MB-435
MDA-N = tested on: MDA-N
MOLT-4 = tested on: MOLT-4
Malme-3M = tested on: Malme-3M
NCI-H226 = tested on: NCI-H226
NCI-H23 = tested on: NCI-H23
NCI-H460 = tested on: NCI-H460
NCI-H522 = tested on: NCI-H522
NCI/ADR-RES = tested on: NCI/ADR-RES
OVCAR-4 = tested on: OVCAR-4
OVCAR-5 = tested on: OVCAR-5
OVCAR-8 = tested on: OVCAR-8
PC-3 = tested on: PC-3
RPMI-8226 = tested on: RPMI-8226
RXF 393 = tested on: RXF 393
SF-268 = tested on: SF-268
SF-539 = tested on: SF-539
SK-MEL-28 = tested on: SK-MEL-28
SK-MEL-2 = tested on: SK-MEL-2
SK-MEL-5 = tested on: SK-MEL-5
SN12C = tested on: SN12C
SNB-19 = tested on: SNB-19
SNB-75 = tested on: SNB-75
SR = tested on: SR
SW-620 = tested on: SW-620
T47D = tested on: T47D
TK-10 = tested on: TK-10
U-251 = tested on: U-251
UACC-257 = tested on: UACC-257
UACC-62 = tested on: UACC-62
UO-31 = tested on: UO-31
HOP-62 = tested on: HOP-62
OVCAR-3 = tested on: OVCAR-3
SF-295 = tested on: SF-295

## COc1ccccc1/C=C/C1=NN(c2cccc(S(=O)(=O)O)c2)C2(C1)SCC(=O)N2c1nc2ccccc2s1 (stereo not drawn)
786-0
  GI50: > 100 µM (inactive)
A498
  GI50: 83.4 µM (inactive)
A549
  GI50: 84.3 µM (inactive)
ACHN
  GI50: 55.7 µM (inactive)
BT-549
  GI50: 56.1 µM (inactive)
CAKI-1
  GI50: > 100 µM (inactive)
CCRF-CEM
  GI50: 23 µM (inactive)
COLO 205
  GI50: 67.8 µM (inactive)
DU-145
  GI50: 89.7 µM (inactive)
EKVX
  GI50: 68.2 µM (inactive)
HCC 2998
  GI50: 60.3 µM (inactive)
HCT-116
  GI50: > 100 µM (inactive)
HCT-15
  GI50: 67.9 µM
HL-60
  GI50: 50.2 µM (inactive)
HOP-92
  GI50: 23.3 µM (inactive)
HT-29
  GI50: 97.9 µM (inactive)
Hs-578T
  GI50: > 100 µM (inactive)
IGROV-1
  GI50: 21.4 µM (inactive)
K562
  GI50: 36.2 µM (inactive)
KM12
  GI50: 41.1 µM (inactive)
LOX IMVI
  GI50: 53.5 µM (inactive)
M14
  GI50: > 100 µM (inactive)
MCF7
  GI50: 44.6 µM (inactive)
MDA-MB-231
  GI50: > 100 µM (inactive)
MDA-MB-435
  GI50: > 100 µM (inactive)
MDA-N
  GI50: > 100 µM (inactive)
MOLT-4
  GI50: 36.7 µM (inactive)
Malme-3M
  GI50: > 100 µM (inactive)
NCI-H226
  GI50: 31.7 µM (inactive)
NCI-H23
  GI50: 30.3 µM (inactive)
NCI-H460
  GI50: 61.9 µM (inactive)
NCI-H522
  GI50: 36.7 µM (inactive)
NCI/ADR-RES
  GI50: > 100 µM (inactive)
OVCAR-4
  GI50: 86.7 µM (inactive)
OVCAR-5
  GI50: > 100 µM (inactive)
OVCAR-8
  GI50: 53.2 µM (inactive)
PC-3
  GI50: 70.1 µM (inactive)
RPMI-8226
  GI50: 23.6 µM (inactive)
RXF 393
  GI50: > 100 µM (inactive)
SF-268
  GI50: > 100 µM (inactive)
SF-539
  GI50: > 100 µM (inactive)
SK-MEL-28
  GI50: > 100 µM (inactive)
SK-MEL-2
  GI50: > 100 µM (inactive)
SK-MEL-5
  GI50: 64.4 µM (inactive)
SN12C
  GI50: > 100 µM (inactive)
SNB-19
  GI50: > 100 µM (inactive)
SNB-75
  GI50: > 100 µM (inactive)
SR
  GI50: 24.5 µM (inactive)
SW-620
  GI50: > 100 µM (inactive)
T47D
  GI50: 20.4 µM (inactive)
TK-10
  GI50: 84.3 µM (inactive)
U-251
  GI50: 52.6 µM (inactive)
UACC-257
  GI50: 97.7 µM (inactive)
UACC-62
  GI50: 53.8 µM (inactive)
UO-31
  GI50: 71.9 µM (inactive)

## CCCCCCCCCC[C@H](O)[C@H]1CC[C@@H]([C@@H](O)CC[C@H](O)[C@@H]2CCC(CCCCCCC[C@@H](O)CC3=C[C@H](C)OC3=O)O2)O1 (stereo partly drawn)
786-0
  GI50: 1.79 µM (inactive)
A498
  GI50: 3.16 µM (inactive)
A549
  GI50: 1.77 µM (inactive)
ACHN
  GI50: 1.21 µM (inactive)
BT-549
  GI50: 5.08 µM (inactive)
CAKI-1
  GI50: 3.22 µM (inactive)
CCRF-CEM
  GI50: 1.11 µM (active)
COLO 205
  GI50: 2.37 µM (inactive)
DU-145
  GI50: 3.6 µM (inactive)
EKVX
  GI50: 1.89 µM (inactive)
HCC 2998
  GI50: 4.33 µM (inactive)
HCT-116
  GI50: 1.16 µM (inactive)
HCT-15
  GI50: 3.64 µM
HL-60
  GI50: 1.44 µM (inactive)
HOP-62
  GI50: 1.65 µM (inactive)
HOP-92
  GI50: 1.02 µM (active)
HT-29
  GI50: 1.73 µM (inactive)
Hs-578T
  GI50: 1.81 µM (inactive)
IGROV-1
  GI50: 1.78 µM (inactive)
K562
  GI50: 1.37 µM (inactive)
KM12
  GI50: 1.53 µM (inactive)
LOX IMVI
  GI50: 0.212 µM (active)
M14
  GI50: 1.5 µM (inactive)
MCF7
  GI50: 1.49 µM (inactive)
MDA-MB-231
  GI50: 2.62 µM (inactive)
MDA-MB-435
  GI50: 1.33 µM (inactive)
MDA-N
  GI50: 2.43 µM (inactive)
MOLT-4
  GI50: 2.92 µM (inactive)
Malme-3M
  GI50: 3.4 µM (inactive)
NCI-H226
  GI50: 1.57 µM (inactive)
NCI-H23
  GI50: 1.31 µM (inactive)
NCI-H460
  GI50: 1.86 µM (inactive)
NCI-H522
  GI50: 3.7 µM (inactive)
NCI/ADR-RES
  GI50: 1.34 µM (inactive)
OVCAR-3
  GI50: 1.35 µM (inactive)
OVCAR-4
  GI50: 4.4 µM (inactive)
OVCAR-5
  GI50: 3.49 µM (inactive)
OVCAR-8
  GI50: 1.95 µM (inactive)
PC-3
  GI50: 1.57 µM (inactive)
RPMI-8226
  GI50: 2.52 µM (inactive)
RXF 393
  GI50: 2.66 µM (inactive)
SF-268
  GI50: 1.85 µM (inactive)
SF-295
  GI50: 1.73 µM (inactive)
SF-539
  GI50: 1.79 µM (inactive)
SK-MEL-28
  GI50: 1.93 µM (inactive)
SK-MEL-2
  GI50: 1.39 µM (inactive)
SK-MEL-5
  GI50: 1.5 µM (inactive)
SN12C
  GI50: 2.94 µM (inactive)
SNB-19
  GI50: 1.61 µM (inactive)
SNB-75
  GI50: 2.47 µM (inactive)
SR
  GI50: 2.05 µM (inactive)
SW-620
  GI50: 1.69 µM (inactive)
T47D
  GI50: 3.08 µM (inactive)
TK-10
  GI50: 1.59 µM (inactive)
U-251
  GI50: 1.97 µM (inactive)
UACC-257
  GI50: 0.115 µM (active)
UACC-62
  GI50: 1.02 µM (active)
UO-31
  GI50: 0.00416 µM (active)
